The values below come from PubChem BioAssay AID1996.

SMILES strings stand for the structures. Converted amounts (≈) assume the structure as drawn.

For the data set the following is noted: buffer; pH 7.4; 200.0 µM.
The solubility (kinetic) is the concentration staying in solution when a stock, usually in DMSO, is diluted into the medium. In the case of `O=C1/C(=C/c2cccc([N+](=O)[O-])c2)CSc2ccc(Cl)cc21`, the kinetic solubility is < 0.7 µg/mL. The figure for `O=C(CCS(=O)(=O)c1ccccc1)Nc1ncc([N+](=O)[O-])s1` is 29.2 µg/mL (≈ 85.5 µM); for `CC(C)C(NC(=O)CCN1C(=O)c2ccccc2C1=O)c1ccccc1` (configuration not stated) it is 18.3 µg/mL (≈ 52.2 µM); for `COc1ccc2oc(=O)c(C(=O)Nc3ccccc3C)cc2c1` it is 2.3 µg/mL (≈ 7.44 µM). In turn, `Cc1ccc2nc(-c3ccc(O)cc3)oc2c1` yielded a solubility (kinetic) of 1.7 µg/mL (≈ 7.55 µM). Consider `COc1ccc(-c2cc(-c3ccccc3)nc(Cl)n2)cc1OC`, for which the solubility (kinetic) is < 0.3 µg/mL. The figure for `CCOc1ccccc1CN1C(=O)C2(OCCO2)c2ccccc21` is 5.2 µg/mL (≈ 16 µM); for `COc1ccc(-c2csc3ncnc(Cl)c23)cc1` it is 0.6 µg/mL (≈ 2.17 µM); for `CC(C)(C)NC(=O)c1ccc(COc2ccc(Cl)cc2Cl)o1` it is 5 µg/mL (≈ 14.6 µM). For `CCC1CCCCN1C(=O)NC(=O)c1ccccc1` (configuration not stated) the value was > 39.1 µg/mL. For `O=S(=O)(NC1Cc2ccccc2C1)c1ccccc1` the value was > 41 µg/mL; for `CC1Oc2ccccc2N(Cc2ccc(F)cc2)C1=O` (configuration not stated), 23.4 µg/mL (≈ 86.3 µM); for `COC(=O)c1ccc(NC(=O)Nc2ccc3c(c2)OCO3)cc1`, 0.8 µg/mL (≈ 2.55 µM). `Cc1cc(NC(=O)c2cc3cccc([N+](=O)[O-])c3[nH]2)ccc1F` gave a kinetic solubility of 0.7 µg/mL (≈ 2.23 µM).

Regarding `Cn1ccnc1SCC(=O)Nc1cc(F)ccc1F`, the kinetic solubility worked out at 41.8 µg/mL (≈ 148 µM). For `O=C1Nc2ccccc2C(c2ccccc2)=NC1O` (configuration not stated) the value was > 37.8 µg/mL; for `COC(=O)c1c(-c2ccccc2)noc1C`, 18.1 µg/mL (≈ 83.3 µM); for `O=C(c1ccc2ccccc2c1)N1CCCC1`, 19.7 µg/mL (≈ 87.4 µM). For `CCOc1ccc(S(=O)(=O)N(CC)CC)cc1N` the value was > 40.9 µg/mL; for `COC(=O)C(CO)Nc1ncnc2onc(-c3ccc(F)cc3)c12` (configuration not stated), > 49.8 µg/mL; for `CC(C)[C@H](NC(=O)N1CCC(Cc2ccccc2)CC1)C(=O)O`, > 47.8 µg/mL.

For the compound `O=C(O)c1sccc1NC(=O)c1c(Cl)cccc1Cl`, the solubility (kinetic) is > 47.4 µg/mL. For the compound `CCOC(=O)NC(=O)CSc1ccc(S(=O)(=O)N2CCCCC2)cn1`, the solubility (kinetic) is > 58.1 µg/mL. The figure for `Nc1nc(NCc2ccco2)nc(NCCO)c1[N+](=O)[O-]` is > 44.1 µg/mL. For `CCSc1ccccc1C(=O)NCc1cccnc1`, the kinetic solubility was > 40.9 µg/mL. For `OC(CN1CCCC(C(F)(F)F)C1)c1ccccc1` (configuration not stated) the value was 31.1 µg/mL (≈ 114 µM). For `CCCCn1cnc2c(oc3nc4c(cc32)CCCC4)c1=O` the value was 20.6 µg/mL (≈ 69.3 µM). For `COc1ccc(/C=C/C(=O)N2CCCc3ccccc32)c(OC)c1` the value was 6.7 µg/mL (≈ 20.7 µM); for `Cc1ccc(F)c(NC(=O)CCOc2ccccc2C)c1`, 25.5 µg/mL (≈ 88.7 µM). In the case of `CSc1ncccc1C(=O)Nc1cccc(C)n1`, the solubility (kinetic) is > 38.9 µg/mL. For `CN(C)CCNC(=O)C(=O)Nc1cc2c3c(c1)CCN3C(=O)CC2` the value was > 49.6 µg/mL; for `NC(=O)/C(=C\c1ccco1)NC(=O)c1ccc(Br)o1`, 42.9 µg/mL (≈ 132 µM). Take `O=C(COC(=O)c1cccc(OC(F)F)c1)Nc1ncccn1`: the kinetic solubility was 30.2 µg/mL (≈ 93.4 µM). The solubility kinetic values of the last two compounds are within 1.5-fold of each other. The figure for `CC(=O)NCc1ccc(-c2csc(NC(=O)CCc3nc4ccccc4c(=O)[nH]3)n2)s1` is 7.3 µg/mL (≈ 16.1 µM); for `COC(=O)Cn1c2nc3ccccc3nc2c2cccc(C)c21` it is 0.2 µg/mL (≈ 0.655 µM); for `CC(CC(=O)O)CC(=O)Nc1cc([N+](=O)[O-])ccc1O` (configuration not stated) it is > 42.3 µg/mL.

Turning to `CCOc1ncccc1C(=O)OC(C)C(=O)Nc1ccc(N2CCOCC2)cc1` (configuration not stated), the kinetic solubility was determined as 27.5 µg/mL (≈ 68.8 µM).

Regarding `COc1ccc(C(C)NS(=O)(=O)Cc2ccccc2)cc1` (configuration not stated), the solubility (kinetic) turned out to be 43 µg/mL (≈ 141 µM).

Compound `Clc1cc2nc(-c3cccnc3Cl)[nH]c2cc1Cl` registered a solubility (kinetic) of 0.8 µg/mL (≈ 2.68 µM). `Cc1ccc(F)cc1NC(=O)N1CCN(C2c3ccccc3-c3ccccc32)CC1` yielded a solubility (kinetic) of 4.9 µg/mL (≈ 12.2 µM). The figure for `O=C(Nc1cccc2c1C(=O)NC2=O)c1ccccc1[N+](=O)[O-]` is 6.9 µg/mL (≈ 22.2 µM). As to `COc1ccc(CN2CCN(C(=O)C3CCN(C(=O)Nc4ccccc4)CC3)CC2)cc1OC`, the solubility (kinetic) came to 60.6 µg/mL (≈ 130 µM). The figure for `Cc1cc(/C(N)=N/OC(=O)c2ccc(Cl)cc2)no1` is 1.6 µg/mL (≈ 5.72 µM). The figure for `O=[N+]([O-])c1ccc(-c2ccc(/C=N/O)o2)cc1` is 8 µg/mL (≈ 34.5 µM); for `Cc1nonc1NC(=O)CSc1nc2ccc(Cl)cc2[nH]1` it is 36.4 µg/mL (≈ 112 µM); for `COc1ccc(CCNC(=O)CSc2nc3scc(-c4ccccc4)c3c(=O)[nH]2)cc1` it is 2 µg/mL (≈ 4.43 µM). The figure for `C(#CCN1CCCCC1)COCc1ccccc1.Cl` is 39 µg/mL; for `O=C(O)CSCc1nc2ccccc2[nH]1` it is 31.7 µg/mL (≈ 143 µM). Regarding `Cc1ccc(S(=O)(=O)NC(=O)NC(C)Cc2ccccc2)cc1` (configuration not stated), the kinetic solubility is > 49.9 µg/mL. The figure for `CC(C)(C)C(=O)Nc1cc2c3c(c1)CCC(=O)N3CCC2` is 40 µg/mL (≈ 140 µM); for `CCN/C=C(\C#N)S(=O)(=O)c1ccc(Br)cc1` it is 34.8 µg/mL (≈ 110 µM). In turn, `O=[N+]([O-])c1ccc(Cl)cc1N1CCCC1` had a kinetic solubility of 2.5 µg/mL (≈ 11 µM). `Cc1cc(C(=O)NCCc2ccccc2)c2cc(F)ccc2n1`: the solubility (kinetic) stood at 14.9 µg/mL (≈ 48.3 µM). For `CN(C)c1ccc(-n2cccc2)cc1` the value was 1.1 µg/mL (≈ 5.91 µM). For `CC(=O)Nc1ccc(-c2csc(Nc3ncccn3)n2)cc1` the value was 0.4 µg/mL (≈ 1.28 µM); for `Cc1ccc(SCC(=O)NC(=O)NCCC(C)C)c(C)c1`, 1.4 µg/mL (≈ 4.54 µM); for `CC(=O)c1cccc(NC(=O)C(C)OC(=O)C2CCC2)c1` (configuration not stated), > 43.4 µg/mL. The figure for `Cc1ccc(C)c(OCCNc2ccc([N+](=O)[O-])cn2)c1` is 0.4 µg/mL (≈ 1.39 µM); for `C=CCOc1ccc(/C=C2\SC(=Nc3cccnc3)NC2=O)cc1` it is 0.7 µg/mL (≈ 2.07 µM). In turn, `COc1ccc(CC(=O)Nc2ccccc2N2CCCC2)cc1` gave a kinetic solubility of 41.6 µg/mL (≈ 134 µM). For `Cn1cccc1C(=O)Nc1ccc(Cl)c(S(=O)(=O)N2CCCCC2)c1` the value was 8.7 µg/mL (≈ 22.8 µM); for `O=C(COC(=O)COc1ccc(Cl)cc1Br)NC1CC1`, > 54.4 µg/mL; for `Cl.O[C@@H]1CCCC[C@H]1N1CCC(c2ccccc2)CC1`, > 44.4 µg/mL. For `CC(N)C(=O)OC(C)(C)Cc1ccc(Cl)cc1.Cl` (configuration not stated) the value was > 43.8 µg/mL; for `CN(C)c1ccc(/C=C/c2cccc[n+]2[O-])cc1`, > 36 µg/mL.

Regarding `Cc1ccc(C(=O)C2=C(O)C(=O)N(Cc3ccco3)C2c2cccc(Cl)c2)o1` (configuration not stated), the solubility (kinetic) was > 59.7 µg/mL. The compound `CC(=O)c1ccc(OCCCOc2cccc3cccnc23)cc1` returned a kinetic solubility of 12.2 µg/mL (≈ 38 µM). Turning to `CS(=O)(=O)N(CC(=O)N1CCCCC1)Cc1ccccc1`, the solubility (kinetic) is > 46.6 µg/mL. `CC(C)C(C)N(Cc1cccc(C(=O)O)c1)C(=O)c1ccc2ccccc2n1` (configuration not stated) gave a kinetic solubility of 31.7 µg/mL (≈ 84.2 µM). The figure for `CN(c1ccc(OCCOc2ccccc2Cl)cc1)S(=O)(=O)c1ccccc1` is 6.2 µg/mL (≈ 14.8 µM); for `O=C(O)c1cccc(-n2c(/C=C/c3ccccc3)nc3ccccc3c2=O)c1` it is > 55.3 µg/mL; for `O=C(Nc1ccc2oc(=O)ccc2c1)c1ccccc1[N+](=O)[O-]` it is 5.7 µg/mL (≈ 18.4 µM).

Take `CN(C(=O)COc1cccc(C#N)c1)C1CCS(=O)(=O)C1` (configuration not stated): the kinetic solubility was > 46.3 µg/mL.

The compound `COc1ccc(-c2nc(CCl)cs2)cc1OC.Cl` had a kinetic solubility of 41.8 µg/mL. `N#Cc1ccc(C(=O)Nc2cccc(S(=O)(=O)NC3=NCCC3)c2)cc1` gave a kinetic solubility of 23.7 µg/mL (≈ 64.3 µM). Against the preceding compound, the solubility kinetic is about 1.8-fold lower. The figure for `CN1CCC(N(C)C(=O)NC2CCCCC2)CC1` is > 38 µg/mL; for `Cc1ccccc1C(=O)c1c[nH]c(C(=O)N=CN(C)C)c1` it is > 42.5 µg/mL. Consider `CC(C)C(=O)Nc1c(-c2ccccc2F)c(=O)c2ccccc2n1C`, for which the solubility (kinetic) was 49.4 µg/mL (≈ 146 µM). The figure for `O=C(c1cccc([N+](=O)[O-])c1)N1CCN(C/C=C/c2ccccc2)CC1` is 52 µg/mL (≈ 148 µM); for `CCNC(=O)C12CCC(C)(C(=O)O1)C2(C)C` (configuration not stated) it is 31.8 µg/mL (≈ 141 µM). For the compound `O=C(O)C1CCCN(S(=O)(=O)c2ccccc2[N+](=O)[O-])C1` (configuration not stated), the kinetic solubility was 36.5 µg/mL (≈ 116 µM). The solubility kinetic values of the last two compounds are within 1.5-fold of each other. For `COc1cc2c(cc1OC)CN(Cc1ccccc1)CC2` the value was 35.6 µg/mL (≈ 126 µM); for `CCN(CC(=O)Nc1ccc2c(c1)OCCO2)C(=O)c1ccc(CS(C)(=O)=O)cc1`, > 64.9 µg/mL. With `Cc1ccc(NC(=O)[C@@H]2CCCN2S(=O)(=O)c2ccc(Cl)cc2)cc1`, the kinetic solubility was 14 µg/mL (≈ 37 µM). On to `CN1CCC(N(C)C(=O)c2cc(-c3ccc(F)cc3)nc3ccccc23)CC1.Cl`, for which the kinetic solubility is > 62.1 µg/mL. `CCc1sc(C(=O)Nc2ncccc2C)cc1C`: the kinetic solubility is > 39.1 µg/mL. The figure for `Br.N=C(N)SCCc1cccc(CCSC(=N)N)c1` is > 66.6 µg/mL; for `O=CNc1ccc(OC(=O)c2cncc(Br)c2)cc1` it is 15.4 µg/mL (≈ 48 µM). For `CCCC(CCC(=O)Nc1cccc([N+](=O)[O-])c1)C(=O)O` (configuration not stated) the value was > 44.1 µg/mL; for `CCOP(=O)(OCC)C(Nc1cccc([N+](=O)[O-])c1)c1ccccc1` (configuration not stated), 7.8 µg/mL (≈ 21.4 µM). For `O=C(Nc1ccccc1O)N1c2ccccc2Sc2ccccc21` the value was < 0.4 µg/mL. Turning to `COc1ccc(C(=O)OCC(=O)NCc2cccs2)c(OC)c1OC`, the solubility (kinetic) is > 54.8 µg/mL.

The compound `COc1ccc(CNC(=O)COC(=O)c2ccc(C(=O)c3ccccc3)cc2)cc1` came in with a kinetic solubility of 7.4 µg/mL (≈ 18.3 µM).

`COc1ccc(S(=O)(=O)N2CCOCC2)cc1NC(=O)COc1ccc(C)cc1` showed a kinetic solubility of 28.4 µg/mL (≈ 67.5 µM). With `CC(=O)Nc1ccc(NC(=O)C(C)OC(=O)C2CCCC2)cc1` (configuration not stated), the kinetic solubility is > 47.8 µg/mL. For `Fc1ccc(OCCCn2ccnc2)cc1` the value was 23.3 µg/mL (≈ 106 µM); for `O=c1c(Cc2ccc(F)cc2)c(O)ccn1CC1CCCO1` (configuration not stated), > 45.5 µg/mL.

For the compound `COc1ccccc1C1CCN(c2ccc([N+](=O)[O-])cn2)CC1`, the kinetic solubility was < 0.2 µg/mL. For `CC1CCN(c2ccc([N+](=O)[O-])c(SCCO)c2)CC1`, the solubility (kinetic) was 28.4 µg/mL (≈ 95.8 µM). The figure for `CCOC(=O)c1cn(CC)c2c(ccc3ccccc32)c1=O` is < 0.6 µg/mL. The figure for `COC(=O)c1ccc(NC(=S)NCCc2ccc(OC)cc2)cc1` is 0.8 µg/mL (≈ 2.32 µM); for `CCCc1cnc(N2CCN(S(=O)(=O)c3cccs3)CC2)nc1` it is < 0.2 µg/mL.
